Measurements: patent US20020004518A1, “Method of treating disorders related to protease-activated receptors-induced cell activation” (priority 2000, published 2002)

What was measured:
PARs = experiment: Inhibition of platelet aggregation induced by PARs (thrombin-triggered, turbidimetric); type: cell-based
Description: A suitable in vitro inhibition assay can be used to preliminarily evaluate a fused pyrazolyl compound's ability to inhibit cell activation induced by PARs, which are pre-activated by thrombin. For example, a platelet suspension in Tyrode's solution can be prepared and incubated with a compound to be tested, thrombin added to trigger platelet aggregation, and the aggregation measured turbidimetrically with a light-transmission aggremometer. In vivo screening can be performed by following procedures well known in the art.
In vitro inhibitory activity of the fused pyrazolyl compounds was preliminarily evaluated by the following method: A platelet suspension in a Tyrode's solution was prepared according to a procedure described by Wu et al., Br. J Pharm., 1995, 116: 1973-1978. The Tyrode's solution had the following composition (mM): NaCl (136.8), KCl (2.8), NaHCO3 (11.9), MgCl2 (1.1), NaH2PO4 (0.33), CaCl2 (1.0), and glucose (11.2). The platelet number in the platelet suspension was adjusted to 4.5×10^8 platelets/mL with the aid of a Coulter Counter (Model ZM). […] Platelet aggregation was measured turbidimetrically with a light-transmission aggremometer. The extent of platelet aggregation was determined at 5 minutes after the addition of thrombin. The percentage of aggregation was calculated by the method described in Teng et al., Biochem. Biophys. […]

[1] = test system: platelet activating factors other than PARs; experiment: Effect on platelet activating factors other than PARs; type: cell-based; details: selectivity versus other platelet activators

| melting point [°C] | SMILES | inhibitory activity on platelet aggregation (PARs; platelet suspension in Tyrode's solution, 3 min preincubation at 37° C., thrombin added, aggregation read at 5 minutes) | activity relative to several other tested compounds, e.g. 1-benzyl-3-(4′-ethoxycarbonyl)phenyl-indazole (PARs; thrombin-induced platelet aggregation, fold versus other tested compounds) | effect on platelet activating factors other than PARs [1] |
| --- | --- | --- | --- | --- |
| 85 to 86 | CCOC(=O)c1cccc(-c2nn(Cc3ccccc3)c3ccccc23)c1 [Example 19, 1-benzyl-3-(3′-ethoxycarbonylphenyl)indazole] | – | at least 10 times | little or no effect |
| 205 to 207 | O=C(O)c1ccc(-c2nn(Cc3ccccc3)c3ccccc23)cc1 [Example 20, 1-benzyl-3-(4′-hydroxycarbonylphenyl)indazole] | – | – | – |
| 190 to 192 | O=C(O)c1cccc(-c2nn(Cc3ccccc3)c3ccccc23)c1 [Example 21, 1-benzyl-3-(3′-hydroxycarbonylphenyl)indazole] | – | – | – |

The remaining lines, values behind:

| SMILES | melting point [°C] | inhibitory activity on platelet aggregation (PARs; platelet suspension in Tyrode's solution, 3 min preincubation at 37° C., thrombin added, aggregation read at 5 minutes) | activity relative to several other tested compounds, e.g. 1-benzyl-3-(4′-ethoxycarbonyl)phenyl-indazole (PARs; thrombin-induced platelet aggregation, fold versus other tested compounds) | effect on platelet activating factors other than PARs [1] |
| --- | --- | --- | --- | --- |
| CCN(CC)Cc1ccc(-c2nn(Cc3ccccc3)c3ccccc23)o1 [Example 17, 1-benzyl-3-(5′-diethylaminomethyl-2′-furyl)indazole] | – | much higher activity | – | – |
| OCc1ccc(-c2nn(Cc3ccccc3)c3ccccc23)cc1 [Example 22, 1-benzyl-3-(4′-hydroxymethylphenyl)indazole] | 110 to 112 | – | – | – |
